Results: patent US20090238792A1, “SUPPRESSION OF POSTOPERATIVE ILEUS” (University of Pittsburgh of the Commonwealth System of …, priority 2007, published 2009)

Legend:
[1] = tested on: jejunal circular smooth muscle; assay: In vitro bethanechol stimulated contractile activity of jejunal circular muscle strips; format: in vivo, rat; details: for mean contractile force, bethanechol stimulated: manipulated rats, 100 mM bethanechol, control 3.2±0.2, SM vehicle 1.9±0.1
Method: (§1) Age matched animals treated with vehicle (normal saline) or valine (263.5 mg/kg, osmotic control) at appropriate time points and at equal volumes served as controls.
(§2) The rodent intestine was subjected to a standardized degree of surgical manipulation as described previously (14). Rats were anesthetized by isoflurane inhalation and the abdomen was opened by a midline laparotomy. The cecum was eventrated and laid out onto a moist gauze. Then, the intestine was inspected along its length and gently compressed using moist cotton applicators. The midline incision was closed by two layers of continuous sutures. All operative procedures were performed under sterile conditions with the intestine being handled only by instruments and never touched directly. Animals were killed at specific time points postoperatively by isoflurane anesthesia inhalation overdose and heart incision.
Mechanical in vitro activity of the rat mid-jejunum was evaluated at 24 hours postoperatively using smooth muscle strips of the circular muscularis as described previously (rats: N=5-11) (14). After dissection and a 30 minute equilibration period, the individual muscles were incrementally stretched to L0. Then after recording spontaneous contractility for 30 minutes, dose response curves were generated using increasing concentrations of the muscarinic agonist bethanechol ([…]) for 10 minutes and intervening wash periods (KRB) of 10 minutes. The contractile response was recorded and analyzed as g/mm2/sec over a 10 minute period.
(§3) Methods: ACI-rats (180-220 g) underwent standardized surgical manipulation of the intestine. […] Age matched animals treated with vehicle or valine (osmotic control) at appropriate time points and at equal volumes served as controls. […] Postoperative mediator mRNA expression in the intestinal muscularis was determined by real-time RT PCR. Leukocyte extravasation was investigated in muscularis whole-mounts. Nitrite production was measured in muscularis cultures. In vivo transit of FITC-dextran was measured using geometric center analysis (GC). In vitro circular muscle contractility was assessed in a standard organ bath. Statistical analysis: unpaired Student t test, p<0.05, mean±SEM.

IL-6 mRNA = assay: Real-time RT-PCR of muscularis IL-6 mRNA 3 hours postoperatively; format: in vivo, rat
Method: as §1, §2
(§4) mRNA Expression Analysis: Postoperative mediator mRNA expressions in the small intestinal muscularis were analyzed using SYBR Green two-step real-time RT-PCR as previously described, (N=4-6). […] Total mRNA extraction was performed using the guanidium-thiocyanate phenol-chloroform extraction method. Equal aliquots (200 ng) of total RNA from each sample, quantified by spectrophotometer, were processed for complimentary DNA (cDNA) synthesis. Primer sequences were used as described previously (tumor necrosis factor-a, TNF-a) (35), or designed according to published sequences 36-41, (GenBank accession numbers: NM_017008 [glyceraldehyde phosphate dehydrogenase (GAPDH)], AF233596 [cyclo-oxygenase-2 (COX-2)], NM_012967 [intercellular adhesion molecule-1 (ICAM-1)], M26744 [interleukin-6 (IL-6)] and NM_012611 [inducible nitric oxide synthase (iNOS)]), using Primer Express software (PE Applied Biosystems, Foster City, Calif.) and purchased from Life Technologies (Rockville, Md.). GAPDH was used as an endogenous control. The efficiency and equality of the real-time PCR primer pairs were determined by amplifying serial dilutions of muscularis cDNA. For each target gene different MgCl2 (3 to 5 mM) concentrations were tested to optimize the PCR amplification. […] Relative quantification was performed using the comparative CT method as described by Schmittgen et al. (42).
Methods: ACI-rats (180-220 g) underwent standardized surgical manipulation of the intestine. […] Postoperative mediator mRNA expression in the intestinal muscularis was determined by real-time RT PCR. […] Nitrite production was measured in muscularis cultures. In vivo transit of FITC-dextran was measured using geometric center analysis (GC). In vitro circular muscle contractility was assessed in a standard organ bath. […]

ICAM-1 mRNA = details: 3 hours postoperatively
Method: as §1, §2
as §4, with “amplification. Agarose gel electrophoretic analysis was used to verify the presence of a single product and that the amplified product corresponded to size predicted for the amplicon. The PCR reaction mixture was prepared using the SYBR Green PCR Core Reagents (PE Applied Biosystems, Foster City, Calif.). PCR conditions on an ABI PRISM 7700 Sequence Detection System (PE Applied Biosystems, Foster City, Calif.) were as recommended by the manufacturer. Each sample was estimated in duplicate.” for “amplification.”
as §3

TNF-α mRNA = details: 3 hours postoperatively
Method: as §1, §2
as §4, with “amplification. Agarose gel electrophoretic analysis was used to verify the presence of a single product and that the amplified product corresponded to size predicted for the amplicon. The PCR reaction mixture was prepared using the SYBR Green PCR Core Reagents (PE Applied Biosystems, Foster City, Calif.). PCR conditions on an ABI PRISM 7700 Sequence Detection System (PE Applied Biosystems, Foster City, Calif.) were as recommended by the manufacturer. Each sample was estimated in duplicate.” for “amplification.”
as §3

iNOS mRNA = details: 3 hours postoperatively
Method: as §1, §2
as §4, with “amplification. Agarose gel electrophoretic analysis was used to verify the presence of a single product and that the amplified product corresponded to size predicted for the amplicon. The PCR reaction mixture was prepared using the SYBR Green PCR Core Reagents (PE Applied Biosystems, Foster City, Calif.). PCR conditions on an ABI PRISM 7700 Sequence Detection System (PE Applied Biosystems, Foster City, Calif.) were as recommended by the manufacturer. Each sample was estimated in duplicate.” for “amplification.”
as §3

prostanoids = assay: Prostanoid release (ELISA) from organ cultured muscularis; format: in vivo, rat; details: manipulated rats, glycine 170 mg/kg or valine
Method: Age matched animals treated with vehicle (normal saline) or valine (263.5 mg/kg, osmotic control) at appropriate time points and at equal volumes served as controls. The rodent intestine was subjected to a standardized degree of surgical manipulation as described previously (14). Rats were anesthetized by isoflurane inhalation and the abdomen was opened by a midline laparotomy. The cecum was eventrated and laid out onto a moist gauze. Then, the intestine was inspected along its length and gently compressed using moist cotton applicators. The midline incision was closed by two layers of continuous sutures. All operative procedures were performed under sterile conditions with the intestine being handled only by instruments and never touched directly. Animals were killed at specific time points postoperatively by isoflurane anesthesia inhalation overdose and heart incision. The synthesis of prostanoids released into the tissue culture supernatant over a period of 24 hours was assayed by ELISA. After incubation the culture median and tissue was inspected, 500 μL aliquots of supernatant were frozen in liquid nitrogen and stored at −80° C. The muscle tissue was blotted dry and weighed. Culture supernatants were assayed for the measurement of prostaglandin secretion by enzyme immunoassay (Cayman Chemicals, Ann Arbor, Mich.). The ELISA was carried out in a 1:10 and 1:30 dilution. The assay was corrected for wet tissue weights and the prostaglandin ELISA kit sensitivity was 20 pg/ml.

NCC(=O)O [glycine]
amelioration of postoperative muscularis contractility ([1]; Example 5, glycine (170 mg) i.v. 1 hour prior to surgery): 54%
mean contractile force, bethanechol stimulated ([1]; 85 mg/kg glycine): 2.4±0.3 g/mm2/s
mean contractile force, bethanechol stimulated ([1]; 170 mg/kg glycine or valine pretreatment): 2.9±0.3 g/mm2/s
IL-6 mRNA induction vs non-operated vehicle treated controls (IL-6 mRNA; glycine pretreatment, 3 hours postoperatively, manipulation alone 8521 fold): 2742 fold
mediator mRNA levels in non-operated animals vs non-operated vehicle rats (IL-6 mRNA; non-operated glycine injected rats): did not differ
postoperative induction of IL-6 mRNA (IL-6 mRNA; surgically manipulated rats, 3 hours postoperatively): significantly attenuated
ICAM-1 mRNA induction vs non-operated vehicle treated controls (ICAM-1 mRNA; glycine pretreatment, manipulation alone 21 fold): 14 fold
postoperative induction of ICAM-1 mRNA (ICAM-1 mRNA; surgically manipulated rats): attenuation
TNF-α mRNA induction vs non-operated vehicle treated controls (TNF-α mRNA; glycine pretreatment, manipulation alone 3.4 fold): 1.9 fold
postoperative induction of TNF-α mRNA (TNF-α mRNA; surgically manipulated rats): attenuation
surgical induction of iNOS mRNA (iNOS mRNA; SM vehicle 197.1-fold): significantly suppressed
iNOS mRNA induction vs non-operated vehicle treated controls (iNOS mRNA; glycine pretreatment, manipulation alone 197 fold): 17 fold
prostanoid release, fold of control, colon (prostanoids; colonic muscularis 24 h organ culture, SM 3.1-fold): 0.7 fold
prostanoid release, fold of control, jejunum (prostanoids; jejunal muscularis 24 h organ culture, SM 5.9-fold): 0.9 fold
